Laboratory results reported in patent publication US20050070480A1, “Peptide arginals and methods for treating disseminated intravascular coagulation” (priority 2001, published 2005).
Like-named read-outs stand apart in the source and are kept apart here.

Assays:
clot-bound thrombin = clot-bound thrombin (Homo sapiens, UniProt P00734); assay: Enzyme inhibition in platelet-rich plasma clots, chromogenic substrate Tos-Gly-Pro-Arg-pNA; format: biochemical
Experimental: (§1) Tos-Gly-Pro-Arg-pNA (S1) for thrombin and Moc-D-Chg-Gly-Arg-pNA (S2) for factor Xa, as published (Bajusz, S. et al.: PCT Pub. No. WO97/46576) briefly. The assays were carried out at room temperature in glass tubes and 96-well microtiter plates.
(§2) Solutions, (i) Buffer A: 0.1 M sodium phosphate/0.05 M NaCl (pH 8.5). (ii) Inhibitors: 0.1, 1.0 and 10 mg/ml solutions in buffer A containing 0.02% human albumin. (iii) Substrates: 1 mM of S1 and 2 mM of S2 in distilled water.
(§3) (b) Preparation of plasma clots. Platelet rich plasma samples (200 μl) placed in glass tubes were incubated at room temperature with 80 μl 40 mM CaCl2 for 60 min. The clots were washed with 2 ml aliquots of saline (0.9% NaCl) with gentle agitation to remove unbound enzymes In case of successful washing the optical density of the reaction mixture of wash and S1 is less than 5% of the control. The plasma clot thus obtained was kept under saline in the tube until use.
(§4) (c) Assessment of the enzyme inhibition in the clots. After removal of saline, the plasma clot was incubated at 37° C. with 400 μl inhibitor (or buffer A as negative control) for 5 min. and with 100 μl substrate S1 or S3 for 30 min., then the reaction was stopped with 100 μl 50% acetic acid. 150 μl portions of the reaction mixtures were placed in the wells of a microtiter plate and read at 405 nm (ELISA READER 800, Bio-Tek Instruments Inc. Winooski, Vt., USA). IC50 values were generated from the extinction data graphically.

endotoxin-treated rats = assay: Rat model for disseminated intravascular coagulation (fibrin deposition, platelet count, FDP)
Experimental: The effects of compound 1 of the invention and two control anticoagulants, Efegatran (C) and heparin (H) on such phenomena were examined in endotoxin-treated rats [Ford, A. J. and Longridge, D. J.: Br. J. Pharmacol. 110, Suppl.
Male rats were treated with an i.v. bolus injection of 10 mg/kg endotoxin. It was followed by i.v. infusion of saline or the test compounds for four hours. Of compounds 1 and 3, 0.25 mg/kg was given as an initial bolus injection followed by an 0.25 mg/kg/h i.v. infusion for four hours. Heparin (H) was applied similarly, 50 IU/kg as an initial bolus injection followed by an 50 IU/kg/h i.v. infusion for four hours. Control group of animals was treated with 0.9% saline.
The deposition of ^125I-fibrin was investigated in selected organs (liver and kidney. ^125I-fibrinogen was injected 30 min. prior to endotoxin injection. The radioactivities in the tissue samples were measured in a gamma counter (Wallac Wizard 1470). Microthrombi formation in the organs was assessed using the ratio of organ ^125I activity to injected total ^125I activity, defined as the microthrombi index. Changes in this parameter are expressed in percent compared to saline group.
Number of platelet count was determined in an automatic appliance (Sysmex F-800) and related to control values.
Determination of FDP (fibrin degradation products) by Aggristin (Ristocetin) precipitation assay. […]

[1] = molecular target: tissue plasminogen activator (tPA) (Homo sapiens, UniProt P00750); assay: Fibrin plate assay, tissue plasminogen activator; format: biochemical; settings: reduction of lysed area to 50% of control, read-out: LA50 tPA
Sequence of tissue plasminogen activator (tPA) (P00750 36-562, species assumed): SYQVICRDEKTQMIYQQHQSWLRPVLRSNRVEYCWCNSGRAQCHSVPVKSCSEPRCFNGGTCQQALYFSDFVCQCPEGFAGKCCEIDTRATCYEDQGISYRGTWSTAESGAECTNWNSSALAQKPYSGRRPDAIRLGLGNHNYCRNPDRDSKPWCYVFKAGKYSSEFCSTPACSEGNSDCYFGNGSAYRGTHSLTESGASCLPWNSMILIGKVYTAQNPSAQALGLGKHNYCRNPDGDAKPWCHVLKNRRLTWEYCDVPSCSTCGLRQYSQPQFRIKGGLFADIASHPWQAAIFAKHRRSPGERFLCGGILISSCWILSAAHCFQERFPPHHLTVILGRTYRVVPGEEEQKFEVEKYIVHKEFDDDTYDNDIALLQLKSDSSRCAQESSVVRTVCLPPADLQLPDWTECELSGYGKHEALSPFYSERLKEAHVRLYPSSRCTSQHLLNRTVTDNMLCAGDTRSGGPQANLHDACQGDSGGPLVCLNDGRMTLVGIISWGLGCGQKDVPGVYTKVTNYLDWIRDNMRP
From the text: (§5) Inhibitory effects of the compounds of the invention on plasmin (PL) and plasmin generation by plasminogen (Plogen) activators, such as tissue plasminogen activator (tPA), and urokinase (UK) were examined by the fibrin plate assay. (See e.g., Bagdy, D., Barabás, E., Bajusz, S., and Széll, E., Thromb. Haemostas., 67:325-330 (1992); Barabás, E. Szell, E. and Bajusz, S, Blood Coagulation and Fibrinolysis, 4: 243 (1993)) The results are shown in Table 1, Column C. With a few exceptions the analogues are somewhat more inhibitory than Efegatran against the three fibrinolytic enzymes.

urokinase (UK) = urokinase (UK) (Homo sapiens, UniProt P00749); assay: Fibrin plate assay, urokinase; format: biochemical; settings: reduction of lysed area to 50% of control, urokinase, read-out: LA50 UK
From the text: as §5

citrated human plasma [2] = assay: Prothrombin time (PT) plasma clotting assay; format: biochemical
Experimental: (§6) The inhibitory effect on plasma coagulation was evaluated in the thrombin time (TT), activated partial thromboplastin time (APTT) and prothrombin time (PT) assays by using citrated human plasma as substrate [Bagdy, D. et. al.: Thromb. Haemostas. 67, 325 (1992)]. The TT assay measures the inhibition of a single step, the coagulation of fibrinogen on the action of exogenous thrombin (final concentration 2.5 NIH U/ml). Clotting of plasma in the APTT and PT assays was induced by recalcification. Endogenous thrombin generated could theoretically be present at a final concentration as high as 50 NIH U/ml (APTT, PT). These assays detect the sum of inhibitory actions on fibrin formation and thrombin generation, which includes several proteolytic reactions mediated by either thrombin or other enzymes, e.g. fXa. Anticlotting activity is expressed in CT2, which is the concentration (nM) required to double the clotting time.

clot-bound factor Xa = clot-bound factor Xa (Homo sapiens, UniProt P00742); assay: Enzyme inhibition in platelet-rich plasma clots, chromogenic substrate Moc-D-Chg-Gly-Arg-pNA; format: biochemical
Sequence of clot-bound factor Xa (P00742 235-488 limits assumed): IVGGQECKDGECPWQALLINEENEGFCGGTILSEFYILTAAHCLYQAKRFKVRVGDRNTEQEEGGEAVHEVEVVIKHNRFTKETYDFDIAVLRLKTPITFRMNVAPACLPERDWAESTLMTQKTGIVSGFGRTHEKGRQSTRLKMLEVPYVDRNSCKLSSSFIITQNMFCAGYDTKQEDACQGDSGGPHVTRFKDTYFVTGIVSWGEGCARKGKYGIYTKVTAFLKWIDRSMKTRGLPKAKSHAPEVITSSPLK
Sequence of clot-bound factor Xa (P00742 41-179 limits assumed): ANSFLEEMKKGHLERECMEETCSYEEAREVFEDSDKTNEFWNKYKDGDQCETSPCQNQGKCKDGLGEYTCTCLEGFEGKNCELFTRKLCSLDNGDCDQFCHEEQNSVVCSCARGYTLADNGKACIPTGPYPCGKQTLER
Experimental: as §1, §2, §3, §4

[3] = test system: endotoxin-treated rabbits; format: in vivo, rabbit; settings: for Lethality %, 2 hrs / Lethality no. died/treated animals, 2 hrs / Lethality %, 4 hrs / Lethality no. died/treated animals, 4 hrs: endotoxin-treated rabbits
LPS-treated rats = assay: Survival in a rat model for disseminated intravascular coagulation; format: in vivo; settings: for Survival rate %: rats, 30 mg/kg LPS i.v.
plasmin (PL) = plasmin (PL) (Homo sapiens, UniProt P00747); assay: Fibrin plate assay, plasmin; format: biochemical; settings: reduction of lysed area to 50% of control, read-out: LA50 PL
Sequence of plasmin (PL) (P00747 581-810 limits assumed, species assumed): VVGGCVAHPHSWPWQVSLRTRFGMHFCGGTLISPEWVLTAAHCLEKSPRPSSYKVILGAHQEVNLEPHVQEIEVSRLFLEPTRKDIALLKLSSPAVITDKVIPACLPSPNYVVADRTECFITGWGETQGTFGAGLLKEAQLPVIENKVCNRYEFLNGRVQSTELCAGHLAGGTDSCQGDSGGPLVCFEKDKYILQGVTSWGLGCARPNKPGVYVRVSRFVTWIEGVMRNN
Sequence of plasmin (PL) (P00747 97-580 limits assumed, species assumed): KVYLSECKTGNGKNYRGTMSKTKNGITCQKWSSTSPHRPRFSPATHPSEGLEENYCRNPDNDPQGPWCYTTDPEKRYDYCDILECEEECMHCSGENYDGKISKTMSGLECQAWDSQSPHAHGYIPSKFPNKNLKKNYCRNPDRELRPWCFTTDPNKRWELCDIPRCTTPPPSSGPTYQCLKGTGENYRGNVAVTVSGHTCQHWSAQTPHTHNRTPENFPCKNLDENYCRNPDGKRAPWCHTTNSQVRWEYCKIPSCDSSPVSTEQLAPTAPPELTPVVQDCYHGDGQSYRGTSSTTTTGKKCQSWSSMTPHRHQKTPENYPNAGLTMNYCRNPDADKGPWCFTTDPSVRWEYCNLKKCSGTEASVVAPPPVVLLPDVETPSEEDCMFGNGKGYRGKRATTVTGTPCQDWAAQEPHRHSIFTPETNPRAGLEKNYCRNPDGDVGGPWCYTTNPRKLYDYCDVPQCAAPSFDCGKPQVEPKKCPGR
From the text: as §5

citrated human plasma [4] = assay: Activated partial thromboplastin time (APTT) plasma clotting assay; format: biochemical
Experimental: as §6

[5] = test system: citrated human plasma (exogenous thrombin); assay: Thrombin time (TT) plasma clotting assay; format: biochemical; settings: thrombin 2.5 NIH U/ml
Experimental: as §6

## CCOC(=O)N[C@H](CC1CCCCCC1)C(=O)N1CCC[C@H]1C(=O)N[C@H](C=O)CCCNC(=N)N [Compound 1, ethoxycarbonyl-D-cycloheptylalanyl-L-prolyl-L-arginine aldehyde]
clot-bound thrombin
  Inhibition of clot-bound thrombin compared with Efegatran (in words): surpass Efegatran
clot-bound thrombin; clot-bound thrombin, platelet-rich plasma clot
  IC50: 103 nM
endotoxin-treated rats
  DIC-inhibiting potential (in words): more pronounced than that of either heparin or Efegatran
[1]
  IC50: 10 µM
Urokinase (UK)
  IC50: 14 µM
Citrated human plasma [2]
  CT2 PT (concentration required for doubling the clotting time): 1839 nM
clot-bound factor Xa
  IC50: 118 nM
[3]; compared with endotoxin alone
  Effect on lethality of endotoxin-treated rabbits (in words): significantly reduce the lethality
[3]; 0.25 mg/kg/h infusion
  Lethality %, 2 hrs: 0%
  Lethality no. died/treated animals, 2 hrs: 0/19
  Lethality %, 4 hrs: 16%
  Lethality no. died/treated animals, 4 hrs: 3/19
[3]; 0.5 mg/kg/h infusion
  Lethality %, 2 hrs: 0%
  Lethality no. died/treated animals, 2 hrs: 0/12
  Lethality %, 4 hrs: 17%
  Lethality no. died/treated animals, 4 hrs: 2/12
LPS-treated rats; LPS-treated rats
  Effectiveness on survival compared with reference C (in words): more effective than reference C
LPS-treated rats; 0.75 mg/kg bolus + infusion, 0 hours
  Survival rate %: 100%
LPS-treated rats; 0.75 mg/kg bolus + infusion, 4 hours
  Survival rate %: 100%
LPS-treated rats; 0.75 mg/kg bolus + infusion, 5 hours
  Survival rate %: 100%
LPS-treated rats; 0.75 mg/kg bolus + infusion, 6 hours
  Survival rate %: 100%
LPS-treated rats; 0.75 mg/kg bolus + infusion, 7 hours
  Survival rate %: 90%
LPS-treated rats; 0.75 mg/kg bolus + infusion, 8 hours
  Survival rate %: 70%
LPS-treated rats; 1.0 mg/kg bolus + infusion, 0 hours
  Survival rate %: 100%
LPS-treated rats; 1.0 mg/kg bolus + infusion, 4 hours
  Survival rate %: 100%
LPS-treated rats; 1.0 mg/kg bolus + infusion, 5 hours
  Survival rate %: 100%
LPS-treated rats; 1.0 mg/kg bolus + infusion, 6 hours
  Survival rate %: 100%
LPS-treated rats; 1.0 mg/kg bolus + infusion, 7 hours
  Survival rate %: 90%
LPS-treated rats; 1.0 mg/kg bolus + infusion, 8 hours
  Survival rate %: 90%
LPS-treated rats; 1.5 mg/kg bolus + infusion, 0 hours
  Survival rate %: 100%
LPS-treated rats; 1.5 mg/kg bolus + infusion, 4 hours
  Survival rate %: 100%
LPS-treated rats; 1.5 mg/kg bolus + infusion, 5 hours
  Survival rate %: 100%
LPS-treated rats; 1.5 mg/kg bolus + infusion, 6 hours
  Survival rate %: 100%
LPS-treated rats; 1.5 mg/kg bolus + infusion, 7 hours
  Survival rate %: 100%
LPS-treated rats; 1.5 mg/kg bolus + infusion, 8 hours
  Survival rate %: 100%
Plasmin (PL)
  IC50: 18 µM
Citrated human plasma [4]
  CT2 APTT (concentration required for doubling the clotting time): 331 nM
[5]
  CT2 TT (concentration required for doubling the clotting time): 147 nM
